From patent US6573275B1, “Bicyclic amines” (Syngenta Limited, priority 1995, dated 2003) come the findings set out here.

The data set relates to peach aphid (Myzus persicae). The data set can be described thus: Insecticidal test against peach aphid, infested Chinese cabbage leaves sprayed. Type of data set: in vivo. Conditions: peach aphid (Myzus persicae) on Chinese cabbage leaves, sprayed with 500 ppm composition unless otherwise stated, mortality assessed after 3 days. The method in brief: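 Aphid-infested Chinese cabbage leaves were sprayed with compound at 500 ppm unless otherwise stated, formulated in acetone/ethanol diluted with water containing 0.05% Synperonic NP8. Mortality was assessed after 3 days.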
Take `N#CC1(c2cncc(Cl)c2)CC2CCC(C1)N2Cc1cccc(Cl)c1` (centres unmarked) [Compound 261]: the “Score (grading of mortality)” value is recorded as “A (A indicates 80-100% mortality)”.
For `N#CC1(c2cncc(Cl)c2)CC2CCC(C1)N2Cc1ccc(F)cc1I` (centres unmarked) [Compound 262] the value was “A (A indicates 80-100% mortality)”; for `Cc1cccc(CN2C3CCC2CC(C#N)(c2cncc(Cl)c2)C3)c1F` (centres unmarked) [Compound 263], “A (A indicates 80-100% mortality)”; for `N#CC1(c2cncc(Cl)c2)CC2CCC(C1)N2Cc1ccccc1N1C(=O)CCC1=O` (centres unmarked) [Compound 264], “A (A indicates 80-100% mortality)”.
For `N#CC1(c2cncc(Cl)c2)CC2CCC(C1)N2Cc1cc(C(F)(F)F)ccc1F` (centres unmarked) [Compound 265] the value was “A (A indicates 80-100% mortality)”; for `N#CC1(c2cncc(Cl)c2)CC2CCC(C1)N2Cc1ccccc1-c1ccccc1` (centres unmarked) [Compound 266], “A (A indicates 80-100% mortality)”; for `N#Cc1ccccc1CN1C2CCC1CC(C#N)(c1cncc(Cl)c1)C2` (centres unmarked) [Compound 267], “A (A indicates 80-100% mortality)”.
For `N#CC1(c2cncc(Cl)c2)CC2CCC(C1)N2Cc1cccc(Oc2ccc(F)cc2)c1` (centres unmarked) [Compound 269], the “Score (grading of mortality)” value is listed as “A (A indicates 80-100% mortality)”.
On to `N#Cc1ccc(CN2C3CCC2CC(C#N)(c2cncc(Cl)c2)C3)cc1` (centres unmarked) [Compound 270], for which the “Score (grading of mortality)” value is reported as “A (A indicates 80-100% mortality)”.
Regarding `N#CC1(c2cncc(Cl)c2)CC2CCC(C1)N2Cc1ccc(F)c(F)c1F` (centres unmarked) [Compound 271], the “Score (grading of mortality)” value is reported as “A (A indicates 80-100% mortality)”.
The same measure for `N#CC1(c2cncc(Cl)c2)CC2CCC(C1)N2Cc1ccccc1[N+](=O)[O-]` (centres unmarked) [Compound 272]: “A (A indicates 80-100% mortality)”; for `N#CC1(c2cncc(Cl)c2)CC2CCC(C1)N2Cc1c(F)cccc1[N+](=O)[O-]` (centres unmarked) [Compound 273]: “A (A indicates 80-100% mortality)”.
For `N#CC1(c2cncc(Cl)c2)CC2CCC(C1)N2Cc1cccc([N+](=O)[O-])c1` (centres unmarked) [Compound 274], the “Score (grading of mortality)” value was “A (A indicates 80-100% mortality)”.
Consider `N#CC1(c2cncc(Cl)c2)CC2CCC(C1)N2Cc1ccc([N+](=O)[O-])cc1` (centres unmarked) [Compound 275], for which the “Score (grading of mortality)” value is “A (A indicates 80-100% mortality)”.
On to `CC(C)CN1C2CCC1CC(C#N)(c1cncc(Cl)c1)C2` (centres unmarked) [Compound 276], for which the “Score (grading of mortality)” value is given as “A (A indicates 80-100% mortality)”.
The same measure for `CCCCCCCCCCN1C2CCC1CC(C#N)(c1cncc(Cl)c1)C2` (centres unmarked) [Compound 277]: “A (A indicates 80-100% mortality)”.
The same measure for `N#CC1(c2cncc(Cl)c2)CC2CCC(C1)N2CCOc1ccccc1` (centres unmarked) [Compound 278]: “A (A indicates 80-100% mortality)”; for `CCOCCN1C2CCC1CC(C#N)(c1cncc(Cl)c1)C2` (centres unmarked) [Compound 279]: “A (A indicates 80-100% mortality)”.
As for `CC(C)CCN1C2CCC1CC(C#N)(c1cncc(Cl)c1)C2` (centres unmarked) [Compound 280], the “Score (grading of mortality)” value is reported as “A (A indicates 80-100% mortality)”.
For `COC(=O)CCCN1C2CCC1CC(C#N)(c1cncc(Cl)c1)C2` (centres unmarked) [Compound 281], the “Score (grading of mortality)” value is “A (A indicates 80-100% mortality)”.
The same measure for `N#CC1(c2cncc(Cl)c2)CC2CCC(C1)N2CCCc1ccccc1` (centres unmarked) [Compound 282]: “A (A indicates 80-100% mortality)”.
The same measure for `N#CC1(c2cncc(Cl)c2)CC2CCC(C1)N2CC1CCCCC1` (centres unmarked) [Compound 283]: “A (A indicates 80-100% mortality)”.
Regarding `N#CCCN1C2CCC1CC(C#N)(c1cncc(Cl)c1)C2` (stereo not drawn) [Compound 284, exo-3-(5-chloropyrid-3-yl)-endo-3-cyano-8-(2-cyanoethyl)-8-azabicyclo[3.2.1]octane], the “Score (grading of mortality)” value is “A (A indicates 80-100% mortality)”.
For `N#CCCCN1C2CCC1CC(C#N)(c1cncc(Cl)c1)C2` (centres unmarked) [Compound 285], the “Score (grading of mortality)” value is on record as “A (A indicates 80-100% mortality)”.
`CC(O)CN1C2CCC1CC(C#N)(c1cncc(Cl)c1)C2` (centres unmarked) [Compound 286]: the “Score (grading of mortality)” value was “A (A indicates 80-100% mortality)”.
As for `C=CC(=O)OCCN1C2CCC1CC(C#N)(c1cncc(Cl)c1)C2` (centres unmarked) [Compound 287], the “Score (grading of mortality)” value is on record as “A (A indicates 80-100% mortality)”.
With `COCCN1C2CCC1CC(C#N)(c1cncc(Cl)c1)C2` (centres unmarked) [Compound 288], the “Score (grading of mortality)” value is “A (A indicates 80-100% mortality)”.
For `N#CC1(c2cncc(Cl)c2)CC2CCC(C1)N2CC1CCCCO1` (centres unmarked) [Compound 289] the value was “A (A indicates 80-100% mortality)”; for `CC(CO)CN1C2CCC1CC(C#N)(c1cncc(Cl)c1)C2` (centres unmarked) [Compound 290], “A (A indicates 80-100% mortality)”; for `N#CC1(c2cncc(Cl)c2)CC2CCC(C1)N2CP(=O)(O)O` (stereo not drawn) [Compound 292, exo-3-(5-chloropyrid-3-yl)-endo-3-cyano-8-phosphonomethyl-8-azabicyclo[3.2.1]octane], “A (A indicates 80-100% mortality)”.
The same measure for `C[N+]1([O-])C2CCC1CC(C#N)(c1cncc(Cl)c1)C2` (centres unmarked) [Compound 293]: “A (A indicates 80-100% mortality)”; for `CC(C)(C)OC(=O)N1C2CCC1CC(C#N)(c1cncc(Cl)c1)C2` (centres unmarked) [Compound 294]: “A (A indicates 80-100% mortality)”.
In the case of `CON1C2CCC1CC(C#N)(c1cncc(Cl)c1)C2` (stereo not drawn) [Compound 296, exo-3-(5-chloropyrid-3-yl)-endo-3-cyano-8-methoxy-8-azabicyclo[3.2.1]octane], the “Score (grading of mortality)” value is “A (A indicates 80-100% mortality)”.
For `N#CC1(c2ccnc(Cl)n2)CC2CCC(C1)N2CC(F)(F)F` (centres unmarked) [Compound 297] the value was “A (A indicates 80-100% mortality)”; for `C=COC(=O)N1C2CCC1CC(C#N)(c1cncc(Cl)n1)C2` (centres unmarked) [Compound 298], “A (A indicates 80-100% mortality)”; for `N#CC1(c2cncc(Cl)n2)CC2CCC(C1)N2` (centres unmarked) [Compound 299], “A (A indicates 80-100% mortality)”.
Regarding `N#CC1(c2cncc(Cl)n2)CC2CCC(C1)N2Cc1cccc(Cl)c1` (centres unmarked) [Compound 300], the “Score (grading of mortality)” value is recorded as “A (A indicates 80-100% mortality)”.
`N#CCN1C2CCC1CC(C#N)(c1cncc(Cl)n1)C2` (centres unmarked) [Compound 301]: the “Score (grading of mortality)” value is on record as “A (A indicates 80-100% mortality)”.
For `CC(c1cccc(Cl)c1)N1C2CCC1CC(C#N)(c1cncc(Cl)c1)C2` (centres unmarked) [Compound 302] the value was “A (A indicates 80-100% mortality)”.
The same measure for `CN1C2CCC1CC(C#N)(c1cncc(C#N)c1)C2` (centres unmarked) [Compound 304]: “A (A indicates 80-100% mortality)”; for `C=COC(=O)N1C2CCC1CC(C#N)(c1cncc(I)c1)C2` (stereo not drawn) [Compound 309, exo-3-(5-iodopyrid-3-yl)-endo-3-cyano-8-(vinyloxycarbonyl)-8-azabicyclo[3.2.1]octane]: “A (A indicates 80-100% mortality)”.
